According to PMC7829762, “Characterization of a Novel Laccase LAC-Yang1 from White-Rot Fungus Pleurotus ostreatus Strain Yang1 with a Strong Ability to Degrade and Detoxify Chlorophenols” (Molecules, 2021):

System: T1, LAC-Yang1
T1 construct: native enzyme purified from culture supernatant (Cu2+ and syringic acid induced; ammonium sulfate, DEAE, Phenyl-6FF); only laccase band secreted by this strain
Test: absorbance assay, Michaelis-Menten non-linear regression
Format: biochemical, Pleurotus ostreatus
Conditions: 50 mM acetate buffer pH 5.0, 30 °C, free enzyme
Source text: absorbance assay, Michaelis-Menten non-linear regression on LAC-Yang1

Compound: CCn1c(=NN=c2sc3cc(S(=O)(=O)O)ccc3n2CC)sc2cc(S(=O)(=O)O)ccc21 [ABTS, 2,2′-azino-bis-(3-ethylbenzothiazoline-6-sulfonic acid)]
- Km (420 nm): 150 ± 50 µM

Compound: 2,6-Dimethylphenol [2,6-DMP]
- Km (470 nm, compound identity doubtful: paper spells 2,6-DMP as 2,6-Dimethylphenol, but 470 nm read-out is usual for 2,6-dimethoxyphenol): 120 ± 30 µM

Compound: COc1ccccc1O [guaiacol]
- Km (465 nm): 810 ± 150 µM
